The structures appear in SMILES notation. Where “and” joins values, the source holds several entries; their conditions need not be identical. Equal values may be shown once. Toxic doses and inconclusive results are not listed.

This assay has as its system CD2F1 mice, L1210 leukemia ip, survival T/C. Kind of assay: NCI In Vivo Anticancer Drug Screen. Data for tumor model L1210 Leukemia (intraperitoneal) in CD2F1 (CDF1) mice. To be noted: higher = longer survival. Put shortly:
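In this screen, transplantable tumors were grown in mice given either the compound or its vehicle. Results were expressed as the treated measurement relative to the control measurement.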

The mark [1] stands for this setting: endpoint: mean survival time, dose: 50.0 mg/kg/injection, schedule: Q01DX009 (ip), vehicle: saline with Tween-80.
Setting [2] is: endpoint: mean survival time, dose: 100.0 mg/kg/injection, schedule: Q01DX009 (ip), vehicle: saline with Tween-80.
Setting [3] is: endpoint: mean survival time, dose: 200.0 mg/kg/injection, schedule: Q01DX009 (ip), vehicle: saline with Tween-80.
Where [4] appears, read: endpoint: mean survival time, dose: 400.0 mg/kg/injection, schedule: Q01DX009 (ip), vehicle: saline with Tween-80.
The mark [5] stands for this setting: endpoint: mean survival time, dose: 100.0 mg/kg/injection, schedule: Q04DX003 (ip), vehicle: saline with Tween-80.
Where [6] appears, read: endpoint: mean survival time, dose: 200.0 mg/kg/injection, schedule: Q04DX003 (ip), vehicle: saline with Tween-80.
The mark [7] stands for this setting: endpoint: mean survival time, dose: 400.0 mg/kg/injection, schedule: Q04DX003 (ip), vehicle: saline with Tween-80.
Setting [8] is: endpoint: mean survival time, dose: 100.0 mg/kg/injection, schedule: Q04DX002 (ip), vehicle: saline with Tween-80.

Consider `c1ccc2sc(SSN3CC4CCC(CC4)C3)nc2c1`, for which the T/C runs as follows: (endpoint: mean survival time, dose: 12.5 mg/kg/injection, schedule: Q01DX009 (ip), vehicle: saline with Tween-80) 97 % of control and 108 % of control; (endpoint: mean survival time, dose: 25.0 mg/kg/injection, schedule: Q01DX009 (ip), vehicle: saline with Tween-80) 93 % of control and 101 % of control; under setting [1], 102 % of control and 103 % of control; under setting [2], 101 % of control and 108 % of control; under setting [3], 95 % of control and 108 % of control; under setting [4], 103 % of control.
For `N#CC(/C=C/c1ccccc1)Nc1ccccc1C(N)=O` (stereo not drawn), the T/C by setting is: (endpoint: mean survival time, dose: 100.0 mg/kg/injection, schedule: Q04DX003 (ip), vehicle: saline sonified) 97 % of control; (endpoint: mean survival time, dose: 200.0 mg/kg/injection, schedule: Q04DX003 (ip), vehicle: saline sonified) 97 % of control; (endpoint: mean survival time, dose: 400.0 mg/kg/injection, schedule: Q04DX003 (ip), vehicle: saline sonified) 97 % of control.
With `C1C[N-]CC[N-]CC[N-]CC[N-]1.[Cl][Rh][Cl]`, the T/C (endpoint: mean survival time, dose: 1.56 mg/kg/injection, schedule: Q01DX009 (ip), vehicle: saline) was 100 % of control; the T/C (endpoint: mean survival time, dose: 3.13 mg/kg/injection, schedule: Q01DX009 (ip), vehicle: saline) was 102 % of control; the T/C (endpoint: mean survival time, dose: 6.25 mg/kg/injection, schedule: Q01DX009 (ip), vehicle: saline) was 100 % of control; the T/C (endpoint: mean survival time, dose: 12.5 mg/kg/injection, schedule: Q01DX009 (ip), vehicle: saline) was 98 % of control and 108 % of control.
As for `COc1cc(C=C(C(C)=O)C(C)=O)ccc1O`, the T/C is 98 % of control under setting [1], 101 % of control under setting [2] and 98 % of control under setting [3].
With `CC1(C(N)=O)OC12CCCCC2` (stereo not drawn), the T/C by setting is: under setting [5], 95 % of control; under setting [6], 97 % of control; under setting [7], 97 % of control.
As to `CC(=O)OC1C(N=[N+]=[N-])C(OC(C)=O)C(OC(C)=O)C(OC(C)=O)C1OC(C)=O` (stereo not drawn), the T/C is 93 % of control (endpoint: mean survival time, dose: 100.0 mg/kg/injection, schedule: Q01DX001 (ip), vehicle: Klucel (hydroxypropylcellulose) (HPC)); 95 % of control (endpoint: mean survival time, dose: 200.0 mg/kg/injection, schedule: Q01DX001 (ip), vehicle: Klucel (hydroxypropylcellulose) (HPC)); 103 % of control (endpoint: mean survival time, dose: 400.0 mg/kg/injection, schedule: Q01DX001 (ip), vehicle: Klucel (hydroxypropylcellulose) (HPC)).
In the case of `C=C(C)C1CCC2=CCCC(C)C2(C)C1` (stereo not drawn), the T/C reads like this: (endpoint: mean survival time, dose: 50.0 mg/kg/injection, schedule: Q01DX009 (ip), vehicle: saline) 98 % of control; (endpoint: mean survival time, dose: 100.0 mg/kg/injection, schedule: Q01DX009 (ip), vehicle: saline) 104 % of control; (endpoint: mean survival time, dose: 200.0 mg/kg/injection, schedule: Q01DX009 (ip), vehicle: saline) 90 % of control.
On to `COS(=O)(=O)CC(O)(c1ccccc1)c1ccccc1`, for which the T/C reads like this: (endpoint: mean survival time, dose: 75.0 mg/kg/injection, schedule: Q01DX009 (ip), vehicle: saline) 102 % of control; (endpoint: mean survival time, dose: 75.0 mg/kg/injection, schedule: Q04DX003 (ip), vehicle: saline) 97 % of control; (endpoint: mean survival time, dose: 150.0 mg/kg/injection, schedule: Q01DX009 (ip), vehicle: saline) 100 % of control; (endpoint: mean survival time, dose: 150.0 mg/kg/injection, schedule: Q04DX003 (ip), vehicle: saline) 95 % of control; (endpoint: mean survival time, dose: 300.0 mg/kg/injection, schedule: Q01DX009 (ip), vehicle: saline) 100 % of control; (endpoint: mean survival time, dose: 300.0 mg/kg/injection, schedule: Q04DX003 (ip), vehicle: saline) 95 % of control.
Take `Nc1ccc(N)c(N)c1`: the T/C runs as follows: (endpoint: mean survival time, dose: 100.0 mg/kg/injection, schedule: Q04DX002 (ip), vehicle: saline) 97 % of control; (endpoint: mean survival time, dose: 200.0 mg/kg/injection, schedule: Q04DX002 (ip), vehicle: saline) 90 % of control; (endpoint: mean survival time, dose: 400.0 mg/kg/injection, schedule: Q04DX002 (ip), vehicle: saline) 97 % of control.
With `O=C1OC(c2ccc([N+](=O)[O-])cc2)=N/C1=C\c1ccc2c(c1)OCO2`, the T/C is 95 % of control (endpoint: mean survival time, dose: 25.0 mg/kg/injection, schedule: Q04DX002 (ip), vehicle: saline with Tween-80); 98 % of control (endpoint: mean survival time, dose: 50.0 mg/kg/injection, schedule: Q04DX002 (ip), vehicle: saline with Tween-80); 91 % of control under setting [8].
Turning to `CCCCOC(=O)Nc1ccccn1`, the T/C is 101 % of control under setting [8] and 104 % of control (endpoint: mean survival time, dose: 200.0 mg/kg/injection, schedule: Q04DX002 (ip), vehicle: saline with Tween-80).
In the case of `O=P(OCCCOCc1ccccc1)(N(CCCl)CCCl)N1CC1` (stereo not drawn), the T/C is, setting by setting: (endpoint: mean survival time, dose: 25.0 mg/kg/injection, schedule: Q01DX001 (ip), vehicle: other) 104 % of control; (endpoint: mean survival time, dose: 50.0 mg/kg/injection, schedule: Q01DX001 (ip), vehicle: other) 106 % of control; (endpoint: mean survival time, dose: 100.0 mg/kg/injection, schedule: Q01DX001 (ip), vehicle: DMSO) 98 % of control; (endpoint: mean survival time, dose: 100.0 mg/kg/injection, schedule: Q01DX001 (ip), vehicle: other) 118 % of control; (endpoint: mean survival time, dose: 200.0 mg/kg/injection, schedule: Q01DX001 (ip), vehicle: DMSO) 103 % of control; (endpoint: mean survival time, dose: 200.0 mg/kg/injection, schedule: Q01DX001 (ip), vehicle: other) 101 % of control. Also, the T/C reads like this: (endpoint: mean survival time, dose: 400.0 mg/kg/injection, schedule: Q01DX001 (ip), vehicle: DMSO) 109 % of control; (endpoint: mean survival time, dose: 400.0 mg/kg/injection, schedule: Q01DX001 (ip), vehicle: other) 87 % of control.
For `CC[N+](CC)(CC)Cc1ccccc1`, the T/C is 105 % of control (endpoint: mean survival time, dose: 10.0 mg/kg/injection, schedule: Q04DX003 (ip), vehicle: saline with Tween-80); 94 % of control (endpoint: mean survival time, dose: 20.0 mg/kg/injection, schedule: Q04DX003 (ip), vehicle: saline with Tween-80); 98 % of control (endpoint: mean survival time, dose: 40.0 mg/kg/injection, schedule: Q04DX003 (ip), vehicle: saline with Tween-80).
Take `CNC(=S)C#N`: the T/C (endpoint: median survival time, dose: 6.25 mg/kg/injection, schedule: Q01DX005 (ip), vehicle: saline + Tween-80 + alcohol) is 100 % of control; the T/C (endpoint: median survival time, dose: 12.5 mg/kg/injection, schedule: Q01DX005 (ip), vehicle: saline + Tween-80 + alcohol) was 97 % of control; the T/C (endpoint: median survival time, dose: 25.0 mg/kg/injection, schedule: Q01DX005 (ip), vehicle: saline + Tween-80 + alcohol) is 98 % of control and 102 % of control; the T/C (endpoint: median survival time, dose: 50.0 mg/kg/injection, schedule: Q01DX005 (ip), vehicle: saline + Tween-80 + alcohol) is 87 % of control and 112 % of control.
On to `Nc1ccc(N=Nc2ccccc2)c(N)n1`, for which the T/C by setting is: under setting [2], 98 % of control; under setting [3], 98 % of control; under setting [4], 100 % of control.
On to `Cc1c2ccncc2c(C)c2c1[nH]c1ccc(O)cc12`, for which the T/C (endpoint: mean survival time, dose: 16.75 mg/kg/injection, schedule: Q04DX003 (ip), vehicle: water) is 116 % of control; the T/C (endpoint: mean survival time, dose: 50.0 mg/kg/injection, schedule: Q04DX003 (ip), vehicle: other) was 166 % of control; the T/C (endpoint: mean survival time, dose: 75.0 mg/kg/injection, schedule: Q04DX003 (ip), vehicle: water) was 111 % of control; the T/C (endpoint: mean survival time, dose: 100.0 mg/kg/injection, schedule: Q04DX003 (ip), vehicle: other) is 102 % of control; the T/C (endpoint: mean survival time, dose: 100.0 mg/kg/injection, schedule: Q04DX003 (ip), vehicle: water) is 94 % of control.
For the compound `C/C(=C\c1ccccc1)C(=O)c1ccccc1`, the T/C was 106 % of control (endpoint: mean survival time, dose: 100.0 mg/kg/injection, schedule: Q04DX003 (ip), vehicle: Klucel (hydroxypropylcellulose) (HPC)); 101 % of control (endpoint: mean survival time, dose: 200.0 mg/kg/injection, schedule: Q04DX003 (ip), vehicle: Klucel (hydroxypropylcellulose) (HPC)); 98 % of control (endpoint: mean survival time, dose: 400.0 mg/kg/injection, schedule: Q04DX003 (ip), vehicle: Klucel (hydroxypropylcellulose) (HPC)).
As to `CSc1nc(NC2OC(CO)C(O)C(O)C2O)cc(=O)n1C` (stereo not drawn), the T/C is 102 % of control (endpoint: median survival time, dose: 12.5 mg/kg/injection, schedule: Q01DX005 (ip), vehicle: saline); 100 % of control (endpoint: median survival time, dose: 25.0 mg/kg/injection, schedule: Q01DX005 (ip), vehicle: saline); 102 % of control (endpoint: median survival time, dose: 50.0 mg/kg/injection, schedule: Q01DX005 (ip), vehicle: saline); 102 % of control (endpoint: median survival time, dose: 100.0 mg/kg/injection, schedule: Q01DX005 (ip), vehicle: saline); 100 % of control (endpoint: median survival time, dose: 200.0 mg/kg/injection, schedule: Q01DX005 (ip), vehicle: saline).
With `N#C/C(=C(/C#N)c1ccccc1)c1ccccc1`, the T/C by setting is: under setting [5], 96 % of control; under setting [6], 94 % of control; under setting [7], 88 % of control.

Values taken from PubChem BioAssay AID256 (DTP/NCI, 2004).
